Assay results from US7696218B2, “Substituted 1,3-dialkyl-2,4-dioxo-6-(arylamino)-1,2,3,4-tetrahydropyrimidine-5-hydroxamic acid inhibitors of MAPK/ERK kinase” (Takeda San Diego, Inc., priority 2006, dated 2010).

Biological target: T1, MEK2 (Homo sapiens, UniProt P36507, S222E/S226D)
T1 construct: 6-histidine tag (N); made in house; host or cells: Spodoptera frugiperda Sf9 (baculovirus) for MEK2; E. coli for ERK1
Assay: MEK2 inhibition assay, fluorescence polarization with IMAP beads (ERK1 / FI-Erktide substrate)
Type: biochemical
Settings: 4 nM MEK2, 25 nM ERK1, 400 μM ATP, 500 nM FI-Erktide, 1% DMSO, 22 min at room temperature; values given as ranges; read-out: IC50 of Exemplified Compounds Against MEK2
Description: For MEK2, DNA encoding residues 1-400 (S222E/S226D) of the full-length sequence of the human enzyme may be amplified by PCR and cloned into pFastbac (Invitrogen), which incorporates a 6-histidine tag at the N-terminus. The two mutations, S222E and S226D, may be obtained by quick change PCR. SEQ ID NO: 3 corresponds to residues 1-400 with mutations S222E/S226D, and with the N-terminal 6-histidine tag and SEQ ID NO: 4 is the DNA sequence that was used to encode SEQ ID NO: 3.
Recombinant baculovirus incorporating the MEK1 and MEK2 constructs may be generated by transposition using the Bac-to-Bac system (Invitrogen). High-titer viral stocks may be generated by infection of Spodoptera frugiperda Sf9 cells; the expression of recombinant protein may be carried out by infection of Spodoptera frugiperda Sf9 (Invitrogen) in 5L Wave Bioreactors (Wave Biotech).
Recombinant protein may be isolated from cellular extracts by passage over ProBond resin (Invitrogen). Partially purified extracts of all MEK1 may then be further purified by high pressure liquid chromatography over a SEC2000 gel filtration resin. The purity of MEK1 and MEK2 proteins may be determined on denaturing SDS-PAGE gel. Purified MEK1 and MEK2 may then be concentrated to a final concentration of 3.4 mg/ml and 5.4 mg/ml, respectively. The proteins may be either stored at −78° C. in a buffer containing 50 mM TRIS-HCl pH 7.6, 250 mM NaCl, 0.1 mM EDTA and 0.125 mM TCEP or at −20° C. in the presence of glycerol (final concentration of glycerol at 50%).
The inhibitory properties of compounds relative to MEK1 or MEK2 may be determined using a black 384-well-plate format under the following reaction conditions: 50 mM HEPES pH 7.3, 10 mM NaCl, 10 mM MgCl2, 0.01% Brij35, 1 nM MEK1 or 4 nM MEK2, 25 nM ERK1, 400 μM ATP, 500 nM IPTTPITTYFFFK-5FAM-COOH (FI-Erktide), and 1% DMSO. Reaction product is determined quantitatively by fluorescent polarization using progressive IMAP beads from Molecular Devices.
The assay reaction may be initiated as follows: 2 μl of the mixture of 1.5 μM FI-Erktide and 75 nM ERK with 2 μl of inhibitor (2 fold serial dilutions for 11 data points for each inhibitor) containing 3% DMSO were added to each well of the plate, followed by the addition of 2 μl of the mixture of 3 nM MEK1 or 12 nM MEK2 and 1200 μM ATP to initiate the reaction (final enzyme concentration was 1 nM for MEK1 or 4 nM for MEK2). The reaction mixture may then be incubated at room temperature for 22 min, and quenched and developed by addition of 20 μl of 1:200 dilution of progressive IMAP beads (Molecular Devices) in 80% buffer A, 20% bufferB and 0.003% Tween 20. Fluorescence polarization of the resulting reaction mixtures may be measured after a 1 hour incubation at room temperature.
IC50 values may be calculated by non-linear curve fitting of the compound concentrations and fluorescence polarization signal to the standard IC50 equation.

T1 sequence (P36507 with tags, fused parts or gaps S222E/S226D): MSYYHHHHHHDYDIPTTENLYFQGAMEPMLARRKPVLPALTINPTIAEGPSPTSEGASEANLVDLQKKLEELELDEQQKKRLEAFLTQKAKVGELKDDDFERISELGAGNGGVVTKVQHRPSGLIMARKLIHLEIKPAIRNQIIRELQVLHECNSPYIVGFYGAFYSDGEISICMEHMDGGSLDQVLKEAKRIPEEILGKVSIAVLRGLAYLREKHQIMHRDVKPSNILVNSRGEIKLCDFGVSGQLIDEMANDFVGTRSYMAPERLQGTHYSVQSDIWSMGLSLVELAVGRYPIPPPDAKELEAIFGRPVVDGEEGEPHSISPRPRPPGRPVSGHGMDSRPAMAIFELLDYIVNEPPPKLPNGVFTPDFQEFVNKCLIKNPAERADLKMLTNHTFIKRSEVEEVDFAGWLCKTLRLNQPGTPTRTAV

Row | SMILES | IC50 [nM]
1 | Cn1c(Nc2ccc(I)cc2F)c(C(=O)NOC(CO)CO)c(=O)n(C)c1=O [Example 28, N-(1,3-dihydroxypropan-2-yloxy)-6-(2-fluoro-4-iodophenylamino)-1,3-dimethyl-2,4-dioxo-1,2,3,4-tetrahydropyrimidine-5-carboxamide] | ≤ 500
2 | CCOC(=O)c1c(Nc2ccc(I)cc2F)n(C)c(=O)n(C)c1=O [Example 20, Ethyl 6-(2-fluoro-4-iodophenylamino)-1,3-dimethyl-2,4-dioxo-1,2,3,4-tetrahydropyrimidine-5-carboxylate] | > 25000
3 | COCC(=O)c1c(Nc2ccc(I)cc2F)n(C)c(=O)n(C)c1=O [Example 12, 6-(2-Fluoro-4-iodophenylamino)-5-(2-methoxyacetyl)-1,3-dimethylpyrimidine-2,4(1H,3H)-dione] | 2500 to 25000
4 | Cn1c(Nc2ccc(I)cc2F)c(C(=O)N2CCN(CCO)CC2)c(=O)n(C)c1=O [Example 44, 6-(2-Fluoro-4-iodophenylamino)-5-(4-(2-hydroxyethyl)piperazine-1-carbonyl)-1,3-dimethylpyrimidine-2,4(1H,3H)-dione] | > 25000
5 | Cn1c(Nc2ccc(I)cc2F)c(C(=O)N2CCNCC2)c(=O)n(C)c1=O [Example 43, 6-(2-Fluoro-4-iodophenylamino)-1,3-dimethyl-5-(piperazine-1-carbonyl)pyrimidine-2,4(1H,3H)-dione] | > 25000
6 | Cn1c(Nc2ccc(I)cc2Cl)c(C(=O)NOC[C@H](O)CO)c(=O)n(C)c1=O [Example 27, (R)-6-(2-chloro-4-iodophenylamino)-N-(2,3-dihydroxypropoxy)-1,3-dimethyl-2,4-dioxo-1,2,3,4-tetrahydropyrimidine-5-carboxamide] | ≤ 500
7 | CCOC(=O)c1c(Nc2ccc(Br)cc2Cl)n(C)c(=O)n(C)c1=O [Example 22, Ethyl 6-(4-bromo-2-chlorophenylamino)-1,3-dimethyl-2,4-dioxo-1,2,3,4-tetrahydropyrimidine-5-carboxylate] | > 25000
8 | Cc1cc(C(=O)c2c(Nc3ccc(I)cc3F)n(C)c(=O)n(C)c2=O)no1 [Example 30, 6-(2-Fluoro-4-iodophenylamino)-1,3-dimethyl-5-(5-methylisoxazole-3-carbonyl)pyrimidine-2,4(1H,3H)-dione] | > 25000
9 | Cn1c(Nc2ccc(I)cc2F)c(C(=O)NOCC2CC2)c(=O)n(C)c1=O [Example 4, N-(cyclopropylmethoxy)-6-(2-fluoro-4-iodophenylamino)-1,3-dimethyl-2,4-dioxo-1,2,3,4-tetrahydropyrimidine-5-carboxamide] | 501 to 2500
10 | CC(=O)OCC(=O)c1c(Nc2ccc(I)cc2F)n(C)c(=O)n(C)c1=O [Example 14, 2-(6-(2-Fluoro-4-iodophenylamino)-1,3-dimethyl-2,4-dioxo-1,2,3,4-tetrahydropyrimidin-5-yl)-2-oxoethyl acetate] | > 25000
11 | Cn1c(Nc2ccc(I)cc2F)c(C(=O)NCCN)c(=O)n(C)c1=O [Example 42, N-(2-Aminoethyl)-6-(2-fluoro-4-iodophenylamino)-1,3-dimethyl-2,4-dioxo-1,2,3,4-tetrahydropyrimidine-5-carboxamide] | 501 to 2500
12 | Cn1c(=O)c(C(=O)NOC[C@H](O)CO)c(Nc2ccc(I)cc2F)n(CF)c1=O [Example 54, (R)-N-(2,3-Dihydroxypropoxy)-6-(2-fluoro-4-iodophenylamino)-1-(fluoromethyl)-3-methyl-2,4-dioxo-1,2,3,4-tetrahydropyrimidine-5-carboxamide] | 501 to 2500
13 | Cn1c(Nc2ccc(I)cc2F)c(C(=O)N2CC(O)C2)c(=O)n(C)c1=O [Example 58, 6-(2-Fluoro-4-iodo-phenylamino)-5-(3-hydroxy-azetidine-1-carbonyl)-1,3-dimethyl-1H-pyrimidine-2,4-dione] | 2500 to 25000
14 | CCn1c(=O)c(C(=O)NOCCO)c(Nc2ccc(I)cc2F)n(C)c1=O [Example 48, 3-Ethyl-6-(2-fluoro-4-iodophenylamino)-N-(2-hydroxyethoxy)-1-methyl-2,4-dioxo-1,2,3,4-tetrahydropyrimidine-5-carboxamide] | > 25000
15 | CC(=O)c1c(Nc2ccc(I)cc2F)n(C)c(=O)n(C)c1=O [Example 10, 5-Acetyl-6-(2-fluoro-4-iodophenylamino)-1,3-dimethylpyrimidine-2,4(1H,3H)-dione] | 501 to 2500
16 | Cn1c(Nc2ccc(I)cc2F)c(C(=O)N2CC(O)CO2)c(=O)n(C)c1=O (stereo not shown) [Example 32, 6-(2-Fluoro-4-iodophenylamino)-5-(4-hydroxyisoxazolidine-2-carbonyl)-1,3-dimethylpyrimidine-2,4(1H,3H)-dione] | 2500 to 25000
17 | Cn1c(Nc2ccc(I)cc2F)c(C(=O)NOC[C@H](O)CCO)c(=O)n(C)c1=O [Example 56, 6-(2-Fluoro-4-iodo-phenylamino)-1,3-dimethyl-2,4-dioxo-1,2,3,4-tetrahydropyrimidine-5-carboxylic acid ((R)-2,4-dihydroxy-butoxy)-amide] | 501 to 2500
18 | CCOC(=O)c1c(Nc2ccccc2F)n(C)c(=O)n(C)c1=O [Example 21, Ethyl 6-(2-fluorophenylamino)-1,3-dimethyl-2,4-dioxo-1,2,3,4-tetrahydropyrimidine-5-carboxylate] | > 25000
19 | Cn1c(Nc2ccc(I)cc2F)c(C(=O)NOC[C@H](O)CO)c(=O)n(C)c1=O [Example 2, (R)-N-(2,3-dihydroxypropoxy)-6-(2-fluoro-4-iodophenylamino)-1,3-dimethyl-2,4-dioxo-1,2,3,4-tetrahydropyrimidine-5-carboxamide] | ≤ 500
